Experimental data as given in US4205163A, “Tylosin derivatives” (Sanraku-Ocean Co., Ltd., priority 1977, dated 1980).
In brackets after ≈: the same amount, converted by molar mass. Read-outs that look alike come from different tables or passages of the source.

Experiments:
[1] = system: Bacillus cereus ATCC 9634; assay: antimicrobial activity, broth dilution method; format: cell-based; conditions: Bacillus cereus, ATCC9634, Bacillus cereus ATCC 9634; broth dilution; read-out: minimum inhibitory concentration (MIC)
Procedure: (§1) Antimicrobial activity of the new antibiotics according to the present invention was measured on various pathogenic microorganisms by the broth dilution mehtod. Tab. […] The new antibiotics show a similar antimicrobial spectrum to that of tylosin as shown in Tab. 4. All the compounds have an excellent antimicrobial activity mainly on gram-positive bacteria. […] Test microorganisms with an asterisk mark (*) in Tab. 4 are all drug-resistant strains that were clinically isolated. More in detail, Staphylococcus aureus MS-8710 is resistant to tylosin, penicillin, tetracycline, erythromycin and leucomycin. Staphylococcus aureus MS-9931 is resistant to tylosin, penicillin, erythromycin, tetracycline, leucomycin, spiramycin and josamycin. And also Streptococcus piogenes is resistant to tylosin, erythromycin, oleandomycin and leucomycin.

Sarcina lutea ATCC 9341 = assay: antimicrobial activity, broth dilution method; format: cell-based; conditions: Micrococcus luteus, ATCC9341, Sarcina lutea ATCC 9341, read-out: minimum inhibitory concentration (MIC)
Procedure: as §1

[2] = system: Staphylococcus aureus FDA-209P; assay: antimicrobial activity, broth dilution method; format: cell-based; conditions: Staphylococcus aureus, FDA209P, Staphylococcus aureus FDA-209P; broth dilution; read-out: minimum inhibitory concentration (MIC)
Procedure: as §1

[3] = system: Staphylococcus aureus MS-8710; assay: antimicrobial activity, broth dilution method; format: cell-based; conditions: Staphylococcus aureus, MS8710, Staphylococcus aureus MS-8710, drug-resistant clinical isolate; read-out: minimum inhibitory concentration (MIC)
Procedure: as §1

[4] = system: Staphylococcus aureus MS-9931; assay: antimicrobial activity, broth dilution method; format: cell-based; conditions: MS9931; Staphylococcus aureus MS-9931, drug-resistant clinical isolate; read-out: minimum inhibitory concentration (MIC)
Procedure: as §1

[5] = system: Staphylococcus aureus MS-9937; assay: antimicrobial activity, broth dilution method; format: cell-based; conditions: MS9937; Staphylococcus aureus MS-9937, drug-resistant clinical isolate; read-out: minimum inhibitory concentration (MIC)
Procedure: as §1

[6] = system: Staphylococcus aureus SMITH; assay: antimicrobial activity, broth dilution method; format: cell-based; conditions: Staphylococcus aureus, Staphylococcus aureus SMITH; broth dilution; read-out: minimum inhibitory concentration (MIC)
Procedure: as §1

[7] = system: Streptococcus pyogenes MH-771; assay: antimicrobial activity, broth dilution method; format: cell-based; conditions: Streptococcus pyogenes, MH771, Streptococcus pyogenes MH-771, drug-resistant clinical isolate; read-out: minimum inhibitory concentration (MIC)
Procedure: as §1

in vivo = conditions: mouse, po, 100 mg/kg
Procedure: The new antibiotics according to the present invention were each orally administered to mice at a dose of 100 mg/kg. Each blood level was then measured and compared with those of tylosin and 3-acetyltylosin.

[8] = system: Mycoplasma gallisepticum KP-13; assay: antibacterial activity against Mycoplasma; format: cell-based; conditions: Mycoplasmoides gallisepticum, KP13
Source text: (§2) Furthermore the new antibiotics according to the present invention also show antimicrobial activity on Mycoplasma. In particular, it is noteworthy that they have much higher antimicrobial activity than tylosin on Mycoplasma that is resistant to macrolide antibiotics. Tab.
(§3) **Medium (Eiken PPLO Medium)

[9] = system: Mycoplasma gallisepticum A-72; assay: antibacterial activity against Mycoplasma; format: cell-based; conditions: Mycoplasmoides gallisepticum, A72; strain A-72, macrolide resistant; Eiken PPLO Medium
Source text: as §2
(§4) *Macrolide resistant strain
as §3

[10] = system: Mycoplasma gallisepticum E-11; assay: antibacterial activity against Mycoplasma; format: cell-based; conditions: Mycoplasmoides gallisepticum, E11; strain E-11, macrolide resistant; Eiken PPLO Medium; read-out: MIC
Source text: as §2, §4, §3

[11] = system: Mycoplasma gallisepticum E-5; assay: antibacterial activity against Mycoplasma; format: cell-based; conditions: Mycoplasmoides gallisepticum, E5
Source text: as §2, §4, §3

[12] = strain KP-13, Eiken PPLO Medium, read-out: MIC
[13] = strain E-5, macrolide resistant, Eiken PPLO Medium, read-out: MIC

| Cmax (in vivo) [ng/mL] | SMILES | MIC [1] [µg/mL] | MIC (Sarcina lutea ATCC 9341) [µg/mL] | MIC [2] [µg/mL] | MIC [3] [µg/mL] | MIC [4] [µg/mL] | MIC [5] [µg/mL] | MIC [6] [µg/mL] | MIC [7] [µg/mL] | MIC [8, 12] [µg/mL] | MIC [9] [µg/mL] | MIC [10] [µg/mL] | MIC [11, 13] [µg/mL] | concentration at 1 h (in vivo) [ng/mL] | concentration at 3 h (in vivo) [ng/mL] | MIC [11] [µg/mL] | MIC [8] [µg/mL] |
| --- | --- | --- | --- | --- | --- | --- | --- | --- | --- | --- | --- | --- | --- | --- | --- | --- | --- |
| 2000 to 5000 | CCC1OC(=O)CC(OC(C)=O)C(C)C(OC2OC(C)C(OC3CC(C)(O)C(O)C(C)O3)C(N(C)C)C2O)C(CC=O)CC(C)C(=O)C=CC(C)=CC1COC1OC(C)C(O)C(OC)C1OC (stereo not drawn) [3-acetyltylosin, reference compound] | 0.78 (≈ 0.814 µM) | 0.19 (≈ 0.198 µM) | 0.39 (≈ 0.407 µM) | 200 (≈ 209 µM) | 200 (≈ 209 µM) | 100 (≈ 104 µM) | 0.39 (≈ 0.407 µM) | 200 (≈ 209 µM) |  |  |  |  |  |  |  |  |
|  | CCC1OC(=O)CC(O)C(C)C(OC2OC(C)C(OC3CC(C)(O)C(OC(=O)CCc4ccccc4)C(C)O3)C(N(C)C)C2O)C(CC=O)CC(C)C(=O)C=CC(C)=CC1COC1OC(C)C(O)C(OC)C1OC (stereo not drawn) [Compound 24, 4"-β-phenylpropionyltylosin] | 0.78 (≈ 0.744 µM) | 0.19 (≈ 0.181 µM) | 0.78 (≈ 0.744 µM) | 12.5 (≈ 11.9 µM) | 12.5 (≈ 11.9 µM) | 25 (≈ 23.8 µM) | 0.39 (≈ 0.372 µM) | 25 (≈ 23.8 µM) | 0.078 (≈ 0.0744 µM) | 0.157 (≈ 0.15 µM) | 0.313 (≈ 0.299 µM) | 0.313 (≈ 0.299 µM) | 12000 | 2000 |  |  |
|  | CCC1OC(=O)CC(O)C(C)C(OC2OC(C)C(OC3CC(C)(O)C(OC(=O)CCC4CCCCC4)C(C)O3)C(N(C)C)C2O)C(CC=O)CC(C)C(=O)C=CC(C)=CC1COC1OC(C)C(O)C(OC)C1OC (stereo not drawn) [Compound 29, 4"-β-cyclohexylpropionyl tylosin] | 0.78 (≈ 0.74 µM) | 0.39 (≈ 0.37 µM) | 0.78 (≈ 0.74 µM) | 12.5 (≈ 11.9 µM) | 12.5 (≈ 11.9 µM) | 12.5 (≈ 11.9 µM) | 0.78 (≈ 0.74 µM) | 6.25 (≈ 5.93 µM) | 0.039 (≈ 0.037 µM) | 0.313 (≈ 0.297 µM) | 0.625 (≈ 0.593 µM) |  |  |  | 0.313 (≈ 0.297 µM) |  |
|  | CCC1OC(=O)CC(OC(C)=O)C(C)C(OC2OC(C)C(OC3CC(C)(O)C(OC(=O)CN(C(C)=O)c4ccccc4)C(C)O3)C(N(C)C)C2O)C(CC=O)CC(C)C(=O)C=CC(C)=CC1COC1OC(C)C(O)C(OC)C1OC (stereo not drawn) [Compound 32, 3-acetyl-4"-(N-acetylanilino)acetyltylosin] | 0.78 (≈ 0.688 µM) | 0.39 (≈ 0.344 µM) | 0.78 (≈ 0.688 µM) | 12.5 (≈ 11 µM) | 25 (≈ 22.1 µM) | 25 (≈ 22.1 µM) | 0.78 (≈ 0.688 µM) | 12.5 (≈ 11 µM) |  | 0.157 (≈ 0.139 µM) | 0.313 (≈ 0.276 µM) | 0.313 (≈ 0.276 µM) |  |  |  | 0.157 (≈ 0.139 µM) |
|  | CCC1OC(=O)CC(O)C(C)C(OC2OC(C)C(OC3CC(C)(O)C(OC(=O)CSc4ccc(Cl)cc4)C(C)O3)C(N(C)C)C2O)C(CC=O)CC(C)C(=O)C=CC(C)=CC1COC1OC(C)C(O)C(OC)C1OC (stereo not drawn) [Compound 37, 4"-(4-chlorophenyl)thioacetyltylosin] | 0.78 (≈ 0.709 µM) | 0.19 (≈ 0.173 µM) | 0.39 (≈ 0.354 µM) | 12.5 (≈ 11.4 µM) | 6.25 (≈ 5.68 µM) | 6.25 (≈ 5.68 µM) | 0.39 (≈ 0.354 µM) | 3.13 (≈ 2.84 µM) |  |  |  |  |  |  |  |  |
|  | CCC1OC(=O)CC(OC(C)=O)C(C)C(OC2OC(C)C(OC3CC(C)(O)C(OC(=O)CSCc4ccccc4)C(C)O3)C(N(C)C)C2O)C(CC=O)CC(C)C(=O)C=CC(C)=CC1COC1OC(C)C(O)C(OC)C1OC (stereo not drawn) [Compound 38, 3-acetyl-4"-benzylthioacetyltylosin] | 1.56 (≈ 1.39 µM) | 0.39 (≈ 0.347 µM) | 0.78 (≈ 0.695 µM) | 12.5 (≈ 11.1 µM) | 12.5 (≈ 11.1 µM) | 12.5 (≈ 11.1 µM) | 0.78 (≈ 0.695 µM) | 6.25 (≈ 5.57 µM) | 0.019 (≈ 0.0169 µM) | 0.078 (≈ 0.0695 µM) | 0.078 (≈ 0.0695 µM) | 0.078 (≈ 0.0695 µM) |  |  |  |  |
|  | CCC1OC(=O)CC(O)C(C)C(OC2OC(C)C(OC3CC(C)(O)C(OC(=O)CCSc4ccccc4)C(C)O3)C(N(C)C)C2O)C(CC=O)CC(C)C(=O)C=CC(C)=CC1COC1OC(C)C(O)C(OC)C1OC (stereo not drawn) [Compound 39, 4"-β-phenylthiopropionyltylosin] | 0.39 (≈ 0.361 µM) | 0.19 (≈ 0.176 µM) | 0.78 (≈ 0.722 µM) | 12.5 (≈ 11.6 µM) | 12.5 (≈ 11.6 µM) | 12.5 (≈ 11.6 µM) | 0.39 (≈ 0.361 µM) | 6.25 (≈ 5.79 µM) |  |  |  |  |  |  |  |  |
